Patent publication US20050182065A1, “Method of stimulating hair growth” (priority 2004, published 2005)

How the values were obtained:
C3H/HeN mice [1] = experiment: Telogen Conversion Assay; assay type: in vivo; details: Experiment 8; for Results: number of days following initiation of treatment when hair growth appeared in 50% of the mice: topical once daily for 5 days, solvent polyethylene glycol 30 v/v %, ethanol 30 v/v %, transcutanol 40 v/v %, vehicle 28; for Induction of anagen (conclusion in words): transcutol, ethanol, polypropylene glycol vehicle
C3H/HeN mice [2] = experiment: Telogen Conversion Assay; assay type: in vivo; details: for Results: number of days following initiation of treatment when hair growth appeared in 50% of the mice: topical once daily for 5 days
From the text: The Telogen Conversion Assay measures the potential of a compound (hereinafter referred to as the “test compound”) to convert mice in the resting stage of the hair growth cycle (“telogen”) to the active stage of the hair growth cycle (“anagen”). This assay takes advantage of the fact that the fur (i.e. hair) of 40-day-old C3H/HeN mice is in the telogen phase. This phase usually continues until about 75 days of age, at which point, anagen naturally occurs in these animals. In this assay, selected areas of 40-day-old mice (approximate) are shaved, contacted with a test agent, or a control, and the difference in the rate of hair growth is measured (i.e. induction of the anagen phase). The first sign of anagen is the darkening of skin color as melanocytes in the follicles start to synthesize melanin, in preparation for the production of pigmented hairs.
Female C3H/HeN mice, 7 weeks old (Charles River Laboratories, Raleigh, N.C.) were used for the study. Fur was clipped from the dorsal region of the mice prior to initiation of the study. Only mice with pink skin, a visual indication of the telogen phase, were selected for inclusion in the study.
Test compounds (from Table A) were dissolved in a vehicle consisting of propylene glycol (30%) and ethanol (70%). A test compound dissolved in vehicle, or a vehicle control (30/70 propylene glycol/ethanol, unless otherwise specified) was applied topically to the clipped dorsal region of the mice in each test group (7-10 mice) in a volume of 20 μl/cm^2. Treatments were applied once daily for 5 days.
The treatment area was observed and graded for signs of hair growth. The hair growth response was quantified by recording, for each animal, the day on which signs of hair growth first appeared over the treated area. The first sign of anagen was the darkening of skin color as melanocytes in the follicles started to synthesize melanin. The response time was measured as the number of days between initiation of treatment and when hair growth was present in 50% of the mice in a given group.
The results are reported as the number of days following initiation of treatment when hair growth appeared in 50% of the mice in a given group.

[3] = Experiment 15, 0.03 w/v %, propylene glycol 30%/ethanol 70%, vehicle >30
[4] = Experiment 15, 0.3 w/v %, propylene glycol 30%/ethanol 70%, vehicle >30
[5] = Experiment 15, 1.0 w/v %, propylene glycol 30%/ethanol 70%, vehicle >30
[6] = Experiment 15, terminated early

Cn1nc(O[C@@H]2c3cc(S(=O)(=O)c4ccccc4O)ccc3OC(C)(C)[C@@]2(C)O)ccc1=O [Compound #7]
Results: number of days following initiation of treatment when hair growth appeared in 50% of the mice (C3H/HeN mice [1]; 0.3 w/v %): 21 days | Results: number of days following initiation of treatment when hair growth appeared in 50% of the mice (C3H/HeN mice [1]; 1.0 w/v %): 21 days | Induction of anagen (conclusion in words) (C3H/HeN mice [1]): did exhibit activity | Results: number of days following initiation of treatment when hair growth appeared in 50% of the mice (C3H/HeN mice [2]; Experiment 9, 0.03 w/v %, propylene glycol 30%/ethanol 70%, terminated early): >33 days | Results: number of days following initiation of treatment when hair growth appeared in 50% of the mice (C3H/HeN mice [2]; Experiment 9, 0.3 w/v %, propylene glycol 30%/ethanol 70%, terminated early): >33 days | Results: number of days following initiation of treatment when hair growth appeared in 50% of the mice (C3H/HeN mice [2]; Experiment 9, 1.0 w/v %, propylene glycol 30%/ethanol 70%, terminated early): >33 days | Results: number of days following initiation of treatment when hair growth appeared in 50% of the mice (C3H/HeN mice [2]; Experiment 10, 0.1 w/v %, propylene glycol 30%/ethanol 70%, terminated early): >34 days | Results: number of days following initiation of treatment when hair growth appeared in 50% of the mice (C3H/HeN mice [2]; Experiment 10, 0.1 w/v %, solvent polyethylene glycol 30 v/v %, ethanol 30 v/v %, transcutanol 40 v/v %, terminated early): >34 days | Results: number of days following initiation of treatment when hair growth appeared in 50% of the mice (C3H/HeN mice [2]; Experiment 10, 0.3 w/v %, propylene glycol 30%/ethanol 70%, terminated early): >34 days | Results: number of days following initiation of treatment when hair growth appeared in 50% of the mice (C3H/HeN mice [2]; Experiment 10, 0.3 w/v %, solvent polyethylene glycol 30 v/v %, ethanol 30 v/v %, transcutanol 40 v/v %, terminated early): >34 days | Results: number of days following initiation of treatment when hair growth appeared in 50% of the mice (C3H/HeN mice [2]; [3]): >30 days | Results: number of days following initiation of treatment when hair growth appeared in 50% of the mice (C3H/HeN mice [2]; [4]): >30 days | Results: number of days following initiation of treatment when hair growth appeared in 50% of the mice (C3H/HeN mice [2]; [5]): >30 days | Induction of anagen (conclusion in words) (C3H/HeN mice [2]; [6]): showed no effect at the time of termination

CCOC(=O)CCCn1nnnc1-c1ccc2c(c1)[C@@H](Oc1ccnc(O)c1)[C@](C)(O)C(C)(C)O2 [Compound #5]
Results: number of days following initiation of treatment when hair growth appeared in 50% of the mice (C3H/HeN mice [1]; 0.3 w/v %): >35 days | Results: number of days following initiation of treatment when hair growth appeared in 50% of the mice (C3H/HeN mice [1]; 1.0 w/v %): >35 days | Induction of anagen (conclusion in words) (C3H/HeN mice [1]): inactive

CCOC(=O)CCCn1nnnc1-c1ccc2c(c1)[C@H](Oc1ccc(O)nn1)[C@@](C)(O)C(C)(C)O2 [Compound #2]
Results: number of days following initiation of treatment when hair growth appeared in 50% of the mice (C3H/HeN mice [2]; Experiment 3, 0.1 w/v %, propylene glycol 30%/ethanol 70%, terminated early): >35 days | Results: number of days following initiation of treatment when hair growth appeared in 50% of the mice (C3H/HeN mice [2]; Experiment 3, 0.3 w/v %, propylene glycol 30%/ethanol 70%, terminated early): >35 days | Results: number of days following initiation of treatment when hair growth appeared in 50% of the mice (C3H/HeN mice [2]; Experiment 3, 1.0 w/v %, propylene glycol 30%/ethanol 70%, terminated early): >35 days | Results: number of days following initiation of treatment when hair growth appeared in 50% of the mice (C3H/HeN mice [2]; Experiment 3, 2.5 w/v %, propylene glycol 30%/ethanol 70%, terminated early): >35 days

Cn1nc(O[C@@H]2c3cc(S(=O)(=O)c4ccc(O)cc4)ccc3OC(C)(C)[C@@]2(C)O)ccc1=O [Compound #6]
Results: number of days following initiation of treatment when hair growth appeared in 50% of the mice (C3H/HeN mice [2]; Experiment 2, 0.3 w/v %, propylene glycol 30%/ethanol 70%, vehicle 25): 18 days | Results: number of days following initiation of treatment when hair growth appeared in 50% of the mice (C3H/HeN mice [2]; Experiment 2, 1.0 w/v %, propylene glycol 30%/ethanol 70%, vehicle 25): 30 days | Results: number of days following initiation of treatment when hair growth appeared in 50% of the mice (C3H/HeN mice [2]; Experiment 5, 0.03 w/v %, propylene glycol 30%/ethanol 70%, vehicle >35): >35 days | Results: number of days following initiation of treatment when hair growth appeared in 50% of the mice (C3H/HeN mice [2]; Experiment 5, 0.1 w/v %, propylene glycol 30%/ethanol 70%, vehicle >35): >35 days | Results: number of days following initiation of treatment when hair growth appeared in 50% of the mice (C3H/HeN mice [2]; Experiment 5, 0.3 w/v %, propylene glycol 30%/ethanol 70%, vehicle >35): 23 days | Induction of anagen (conclusion in words) (C3H/HeN mice [2]; Experiment 5, terminated early): induced anagen at the highest concentration tested (0.3%) | Results: number of days following initiation of treatment when hair growth appeared in 50% of the mice (C3H/HeN mice [2]; Experiment 6, 0.003 w/v %, propylene glycol 30%/ethanol 70%, vehicle >35): >35 days | Results: number of days following initiation of treatment when hair growth appeared in 50% of the mice (C3H/HeN mice [2]; Experiment 6, 0.03 w/v %, propylene glycol 30%/ethanol 70%, vehicle >35): >35 days | Results: number of days following initiation of treatment when hair growth appeared in 50% of the mice (C3H/HeN mice [2]; Experiment 6, 0.3 w/v %, propylene glycol 30%/ethanol 70%, vehicle >35): >35 days | Induction of anagen (conclusion in words) (C3H/HeN mice [2]; Experiment 6, terminated early, up to day 35): no effect was seen | Results: number of days following initiation of treatment when hair growth appeared in 50% of the mice (C3H/HeN mice [2]; Experiment 7, 0.003 w/v %, propylene glycol 30%/ethanol 70%, vehicle 29): 31 days | Results: number of days following initiation of treatment when hair growth appeared in 50% of the mice (C3H/HeN mice [2]; Experiment 7, 0.03 w/v %, propylene glycol 30%/ethanol 70%, vehicle 29): >33 days | Results: number of days following initiation of treatment when hair growth appeared in 50% of the mice (C3H/HeN mice [2]; Experiment 7, 0.3 w/v %, propylene glycol 30%/ethanol 70%, vehicle 29): >33 days | Induction of anagen (conclusion in words) (C3H/HeN mice [2]; Experiment 7, proceeded to completion): did not induce anagen prior to the control group | Results: number of days following initiation of treatment when hair growth appeared in 50% of the mice (C3H/HeN mice [2]; [3]): >30 days | Results: number of days following initiation of treatment when hair growth appeared in 50% of the mice (C3H/HeN mice [2]; [4]): 14 days | Results: number of days following initiation of treatment when hair growth appeared in 50% of the mice (C3H/HeN mice [2]; [5]): >30 days | Induction of anagen (conclusion in words) (C3H/HeN mice [2]; [6]): induced anagen when applied at a concentration of 0.3 w/v %

CCOc1c(N[C@@H]2c3cc(S(=O)(=O)c4cccc(O)c4)ccc3OC(C)(C)[C@@]2(C)O)c(=O)c1=O [Compound #3]
Results: number of days following initiation of treatment when hair growth appeared in 50% of the mice (C3H/HeN mice [1]; 0.3 w/v %): >35 days | Results: number of days following initiation of treatment when hair growth appeared in 50% of the mice (C3H/HeN mice [1]; 1.0 w/v %): >35 days | Induction of anagen (conclusion in words) (C3H/HeN mice [1]): inactive

Cn1nc(OC2c3cc(S(=O)(=O)c4ccc(O)cc4)ccc3OC(C)(C)C2(C)O)c2ccccc2c1=O (stereo not drawn) [Compound #4]
Results: number of days following initiation of treatment when hair growth appeared in 50% of the mice (C3H/HeN mice [1]; 0.3 w/v %): >35 days | Results: number of days following initiation of treatment when hair growth appeared in 50% of the mice (C3H/HeN mice [1]; 1.0 w/v %): >35 days | Induction of anagen (conclusion in words) (C3H/HeN mice [1]): inactive
